Laboratory results as given in article PMC8962522, “Direct interaction of TrkA/CD44v3 is essential for NGF-promoted aggressiveness of breast cancer cells” (Journal of Experimental & Clinical Cancer Research : CR, 2022).

Test system: CD44v3 in MDA-MB-231 cells
Experiment: Immunofluorescence, membrane CD44v3
Type: cell-based
Details: MDA-MB-231, immunofluorescence/confocal, NGF
Description: The CD44v3- and CD44v6-containing isoforms expressing respectively exon 8 and 11(Fig. 1A) can interact with growth factor receptors. Using COS-7 cells with low CD44 and TrkA expression (Supplementary Fig. 1A-D), we differentially expressed TrkA and CD44s or a CD44 variant, either CD44v3 or CD44v6 (Fig. 1B, supplementary Fig. 2). […] Additionally, we evaluated the expression of TrkA and CD44v3 at the membrane level or in cells by immunofluorescence in MDA-MB-231 cells.
Supplementary file 13046_2022_2314_MOESM3_ESM.pdf: Additional file 3: Supplementary Figure 1. Validation of the ectopic expression of CD44 and/or TrkA in COS-7 cells. The expression of all CD44 isoforms (A), CD44 variant 3 (B), CD44 variant 6 (C) and TrkA ([…]; D) was evaluated by RT–qPCR (normalized using PUM-1). No expression of CD44, CD44 variants [3 or 6] or TrkA was detected in COS-7 cells (A-D) compared with that in cells transfected with the expression plasmid carrying each protein. […] Quantification of the PLA results was performed using ImageJ software (30 randomly chosen fields per condition of three different experiments). […] CD44v3 and CD44v6 levels at the plasma membrane were assessed by flow cytometry (A-D). The plasma membrane and total TrkA and CD44v3 levels were also quantified by confocal microscopy (E-H). […] The CD44v3/NGF interaction was evaluated using microscale thermophoresis (MST). […]

In the case of “NGF: recombinant human β-NGF (Alomone Labs, Israel)”, the “level of CD44v3 at the membrane (in words)” value is reported as “increased at the membrane until 15 min of NGF treatment and then decreased”.
